Here are results for one molecule from patent US20240197709A1, “POTENTIATING THE TUMOR-SELECTIVE EFFECTS OF NQO1-BIOACTIVATABLE AGENT BY USE OF CMET INHIBITOR” (The Trustees of Indiana University, priority 2022, published 2024).

Series [1] concerns A549 NSCLC with transient MET knockdown (siMET). Nature of the series: long-term survival, A549 transient MET knockdown. Particulars: A549, two different siRNAs.
Description: Graph showing relative long-term survival studies in A549 NSCLC with transient MET knockdown (siMET) compared to siSCR control. β-lap was added±DIC (50 μM) for 2 h after RNAi transfection (48 h) with two different siRNA sequences.
Next, we investigated whether loss of cMET activity arising from genetic depletion of MET expression could enhance the therapeutic effect of β-lap at lower concentrations.
Series [2] has as its system pY1234-cMET/PARP1 nuclear interaction, A549. Particulars: A549, β-lap 3 μM, 2 h.
Another series deals with A549 shMET 3D spheroids. Nature of the series: 3D spheroid growth and viability, A549 shMET. It is filed as cell-based. Particulars: β-lap 3 μM. As to the method: FIG. 5A. Representative brightfield images of A549 shSCR versus shMET 3D spheroids treated with vehicle control (0.1% DMSO) or β-lap (3 μM, which is sub-lethal in A549 NSCLC cells in 2D long-term survival assays) imaged at indicated times to monitor microtumor spheroid growth. Scale bar=250 μm.
FIG. 5B. Graphical comparison of 3D spheroid (microtumor) growth of A549 shSCR vs shMET at indicated treatments over time relative to initial 3D spheroid area (day 1).
FIG. 5C. Quantification of 3D spheroid viability at day 10 (in panel A) using CellTiter-Glo® 3D Cell Viability Assay.
Studies have shown that drug sensitivity of cancer cells cultured in three-dimension (3D) more accurately predicts their sensitivity in vivo.30-31 Thus, we utilized 3D tumor spheroid growth of our isogenic A549 shSCR or shMET cancer cell lines to closely recapitulate the cell-cell interactions of human tumors32-33. After three days of spheroid formation, A549 shSCR and shMET microtumors were exposed to vehicle control (0.1% DMSO) or β-lap (3 μM, sub-lethal concentration in 2D culture for A549 parental line), and imaged over time for 3D spheroid tumor growth for comparison. […] Additionally, the viability of A549 shSCR versus shMET 3D spheroids treated with vehicle control and β-lap at day 10 was determined using CellTiter-Glo® 3D Viability Assay (FIG. 5C) for comparison. […]

Series [3] deals with 53BP1 foci (DSBs) in A549 NSCLC. Description: 53BP1 foci formation, A549. It is filed as cell-based. The following applies: A549, sub-lethal β-lap 3 μM for 2 h, monitored 24 h. As to the method: FIG. 3D. Graphical representation of average 53BP1 foci formation per nucleus at indicated treatment conditions: criz (1 μM), β-lap (3 μM), and DIC separately or in combination.
FIG. 3E Graph showing quantification of DSB formation (% cells with ≥5 53BP1 foci) following exposure of A549 shSCR vs shMET cells to indicated agents for 2 h (in red arrow), washed out and monitored up to 24 h to determine DSB repair kinetics.

In a further series the test system is Capan2 shMET. Description: long-term survival (DNA assay), Capan2 shSCR versus shMET. It is filed as cell-based. The source says: FIG. 1-1R. Graph showing relative long-term survival in isogenic Capan2 shSCR versus shMET cell lines using the DNA assay.
Dicoumarol (DIC) is a well-established NQO1 inhibitor (Asher, et al., Biochemistry 2006, 45(20), 6372-8; Motea, et al., Clin Cancer Res 2019, 25(8), 2601-2609; Huang, et al., Cancer Cell 2016, 30(6), 940-952).

Another series concerns cancers with NQO1. Particulars: average, most cancers with NQO1; cited from earlier work.
Series [4] relates to pY1234-cMET (activated cMET) in the nucleus, A549. Nature of the series: Western blots of nuclear versus cytoplasmic fractions. Particulars: A549, β-lap 3 μM and 6 μM for 2 h. (In general: Immunoblotting shows a protein as a band on a membrane.)
Description: Images of Western blots of nuclear versus cytoplasmic fractions from A549 cells treated with vehicle (DMSO, 0.1%) control and indicated concentrations of β-lap±DIC (50 μM) for 2 h. Lamin B1 and tubulin were used as loading controls for nuclear and cytoplasmic fractions, respectively.
Bar graph depicting quantification of pY1234-cMET (activated cMET) in the nucleus at indicated treatment conditions.
The next series has as its system pY1234-cMET / PARP1. Description: PARP1 immunoprecipitation (co-IP). It is filed as cell-based. Particulars: A549, β-lap 3 and 6 μM for 2 h. The source says: (§1) Next, we sought to investigate the mechanistic role of cMET in promoting resistance to ROS-induced DNA lesions caused by the futile redox cycling of β-lap with NQO1. […] In response to H2O2 stimulation, cMET can translocate into the nucleus where it interacts with PARP1 for activation to enhance the repair of ROS-induced DNA damage. […] Next we performed PARP1 immunoprecipitation studies to determine whether it associates with activated cMET in the nucleus following treatment with β-lap at increasing doses.

The subject of a further series is A549 shMET cells. Nature of the series: long-term survival, A549 shSCR vs shMET. The format is cell-based. Particulars: β-lap 2 h. As to the method:
LC50 values were calculated from long-term cell survival graphs using GraphPad PRISM; ND denotes Not Determined even at the highest concentration presented. All error bars represent the mean±SEM. **** p<0.0001, *** p<0.001, ** p<0.01, *p<0.05.

The test system of series [5] is cellular hydrogen peroxide (H2O2) levels in A549 cells. Description: ROS-Glo H2O2 Assay. It is filed as cell-based. Particulars: A549, β-lap 3 μM, within 15 min, further increased at two hours. As to the method:
FIG. 2-1A. […] Growth media was then replaced with fresh media containing β-lap (3 μM) alone, criz alone (1 μM) or combination±DIC (50 μM) and collected at 15 and 120 min to measure H2O2 production using the ROS-Glo™ H2O2 Assay from Promega (Madison, WI). The assay was performed in three biological replicates.
as §1

Series [6] has as its system MIAPaCa2 NQO1−/− PDAC cell line. Nature of the series: long-term survival, MIAPaCa2 NQO1 knock out. It is filed as cell-based. The following applies: β-lap alone.
Excerpt: Graph showing relative long-term survival plot of isogenic MIAPaCa2 NQO1+/+ versus MIAPaCa2 NQO1−/−PDAC cell lines treated with varying concentrations of β-lap alone.
The conditions of series [7]: HPBCD formulation; cited from earlier work.

As to `CC1(C)CCC2=C(O1)c1ccccc1C(=O)C2=O` [β-lap, β-Lapachone], in series [1], the “sensitivity to β-lap compared to siSCR control” value was “sensitization”. Moreover, the “in situ interaction between activated cMET and PARP1 (PLA foci)” value in [2] was “enhanced in situ interaction”. In addition, in the series on A549 shMET 3D spheroids, the “3D spheroid (microtumor) growth over time” value is “potentiated the lethal effect” and the “3D spheroid viability at day 10 (CellTiter-Glo 3D)” value is “more hypersensitive”. Besides, the “DSB formation and repair” value in series [3] was “induced formation of DSBs that were easily repaired”. In addition, the “sensitivity to β-lap after stable knockdown of cMET” value with Capan2 shMET is listed as “enhanced Capan2 sensitivity”. Also, the LD50 in the series on cancers with NQO1 was 3.0 to 6.0 µM. Further, the “translocation of activated cMET (pY1234-cMET) into the nucleus” value in series [4] was “greatly enhanced”. Also, the “pY1234-cMET co-immunoprecipitated with PARP1” value in the series with pY1234-cMET / PARP1 is reported as “increasing levels of pY1234-cMET with PARP1”. In addition, the “sensitivity to β-lap compared to shSCR control” value in the series on A549 shMET cells is listed as “hypersensitivity”. The “relative amount of cellular H2O2” value in series [5] was “significantly increased”. The “sensitivity after knocking out NQO1” value in [6] is reported as “more resistant”. In addition, the “maximum-tolerated dose (MTD)” value in [7] was “about 25 mg/kg”.
